Assay results: ChEMBL document CHEMBL1201862, “PubChem BioAssay data set” (2004)
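Five concentrations, 48 hours, 96-well plates. Here, GI50 denotes the concentration required for 50% inhibition of growth.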 Active and inactive are the calls of the source. No stated cut-off is given here; in the data, active = GI50 up to about 1.1 µM and inactive = higher.

Columns and labels:
Assay in all cases: inhibition of tumour cell growth, NCI panel, 48 h
CAKI-1 = system: CAKI-1
DU-145 = system: DU-145
EKVX = system: EKVX
HCC 2998 = system: HCC 2998
HOP-92 = system: HOP-92
K562 = system: K562
NCI/ADR-RES = system: NCI/ADR-RES
OVCAR-4 = system: OVCAR-4
OVCAR-8 = system: OVCAR-8
PC-3 = system: PC-3
RPMI-8226 = system: RPMI-8226
RXF 393 = system: RXF 393
SF-295 = system: SF-295
SN12C = system: SN12C
SNB-75 = system: SNB-75
SR = system: SR
SW-620 = system: SW-620
U-251 = system: U-251
UO-31 = system: UO-31
HT-29 = system: HT-29

For `Cc1ccc(S(=O)(=O)Nn2c(S)c(C#N)c(-c3ccc(Cl)cc3)c(C#N)c2=O)cc1`, the GI50 (CAKI-1) was 32.7 µM (inactive), the GI50 (DU-145) was 52.2 µM (inactive) and the GI50 (EKVX) was 32.9 µM (inactive). The GI50 (HCC 2998) was 38.8 µM (inactive), the GI50 (HOP-92) was 59 µM (inactive) and the GI50 (K562) was 38.6 µM (inactive). The GI50 (NCI/ADR-RES) was 27.5 µM (inactive), the GI50 (OVCAR-4) was 15.1 µM (inactive) and the GI50 (OVCAR-8) was 22 µM (inactive). The GI50 (PC-3) was 24.4 µM (inactive), the GI50 (RPMI-8226) was 26.2 µM (inactive) and the GI50 (RXF 393) was 32.3 µM (inactive). The GI50 (SF-295) was 32.9 µM (inactive), the GI50 (SN12C) was 25.7 µM (inactive) and the GI50 (SNB-75) was 33.8 µM (inactive). The GI50 (SR) was 29.7 µM (inactive), the GI50 (SW-620) was 22.4 µM (inactive) and the GI50 (U-251) was 22.2 µM (inactive). For the same compound, the GI50 (UO-31) was 19.1 µM (inactive).

For `Cc1ccnc(NC(=S)Nc2ccc([N+](=O)[O-])cc2)c1`, the GI50 (DU-145) was 34.6 µM (inactive), the GI50 (EKVX) was > 100 µM (inactive) and the GI50 (HCC 2998) was > 100 µM (inactive). The GI50 (HOP-92) was 31.1 µM (inactive), the GI50 (HT-29) was > 100 µM (inactive) and the GI50 (K562) was > 100 µM (inactive). For the same compound, the GI50 (NCI/ADR-RES) was 56.5 µM (inactive), the GI50 (OVCAR-4) was > 100 µM (inactive) and the GI50 (OVCAR-8) was 35.5 µM (inactive). The GI50 (PC-3) was > 100 µM (inactive), the GI50 (RPMI-8226) was > 100 µM (inactive) and the GI50 (RXF 393) was > 100 µM (inactive). For the same compound, the GI50 (SF-295) was 62.8 µM (inactive), the GI50 (SNB-75) was 44.6 µM (inactive) and the GI50 (SR) was > 100 µM (inactive). The GI50 (SW-620) was > 100 µM (inactive), the GI50 (U-251) was 49 µM (inactive) and the GI50 (UO-31) was > 100 µM (inactive).

With `OCc1ccc2c(c1)CC1(Cc3ccccc3C1)C2` the GI50 (CAKI-1) was 15.9 µM (inactive), the GI50 (DU-145) was 33.8 µM (inactive) and the GI50 (EKVX) was 26.1 µM (inactive). The GI50 (HCC 2998) was 27.7 µM (inactive), the GI50 (HOP-92) was 17.1 µM (inactive) and the GI50 (HT-29) was 16.8 µM (inactive). For the same compound, the GI50 (K562) was 7.11 µM (inactive), the GI50 (NCI/ADR-RES) was 16.8 µM (inactive) and the GI50 (OVCAR-4) was 34 µM (inactive). For the same compound, the GI50 (OVCAR-8) was 21.2 µM (inactive), the GI50 (PC-3) was 10.8 µM (inactive) and the GI50 (RPMI-8226) was 15.8 µM (inactive). For the same compound, the GI50 (RXF 393) was 15.7 µM (inactive), the GI50 (SF-295) was 18.1 µM (inactive) and the GI50 (SN12C) was 17.4 µM (inactive). For the same compound, the GI50 (SNB-75) was 13.5 µM (inactive), the GI50 (SR) was 22.3 µM (inactive) and the GI50 (SW-620) was 18.4 µM (inactive). For the same compound, the GI50 (UO-31) was 11.8 µM (inactive).

For `Cc1nc(-n2[nH]c(C)c(CCO)c2=O)[nH]c(=O)c1CCO`, the GI50 (CAKI-1) was > 100 µM (inactive), the GI50 (DU-145) was > 100 µM (inactive) and the GI50 (EKVX) was > 100 µM (inactive). For the same compound, the GI50 (HCC 2998) was > 100 µM (inactive), the GI50 (HOP-92) was > 100 µM (inactive) and the GI50 (HT-29) was > 100 µM (inactive). The GI50 (K562) was > 100 µM (inactive), the GI50 (NCI/ADR-RES) was > 100 µM (inactive) and the GI50 (OVCAR-4) was > 100 µM (inactive). For the same compound, the GI50 (OVCAR-8) was > 100 µM (inactive), the GI50 (PC-3) was > 100 µM (inactive) and the GI50 (RPMI-8226) was > 100 µM (inactive). The GI50 (RXF 393) was > 100 µM (inactive), the GI50 (SF-295) was > 100 µM (inactive) and the GI50 (SN12C) was > 100 µM (inactive). The GI50 (SNB-75) was > 100 µM (inactive), the GI50 (SR) was > 100 µM (inactive) and the GI50 (SW-620) was > 100 µM (inactive). For the same compound, the GI50 (U-251) was > 100 µM (inactive) and the GI50 (UO-31) was > 100 µM (inactive).

For `Clc1nc(-c2ccccc2)nc(Cl)c1Cl`, the GI50 (CAKI-1) was 3.09 µM (inactive), the GI50 (DU-145) was 15.8 µM (inactive) and the GI50 (EKVX) was 16.2 µM (inactive). The GI50 (HCC 2998) was 7.71 µM (inactive), the GI50 (HOP-92) was 13.9 µM (inactive) and the GI50 (HT-29) was 9.89 µM (inactive). For the same compound, the GI50 (K562) was 3.76 µM (inactive), the GI50 (NCI/ADR-RES) was 22.5 µM (inactive) and the GI50 (OVCAR-4) was 16 µM (inactive). The GI50 (OVCAR-8) was 14.6 µM (inactive), the GI50 (PC-3) was 11.8 µM (inactive) and the GI50 (RPMI-8226) was 4.29 µM (inactive). For the same compound, the GI50 (RXF 393) was 7.85 µM (inactive), the GI50 (SF-295) was 17.3 µM (inactive) and the GI50 (SN12C) was 16.8 µM (inactive). The GI50 (SNB-75) was 15.7 µM (inactive), the GI50 (SR) was 2.69 µM (inactive) and the GI50 (SW-620) was 4.98 µM (inactive). For the same compound, the GI50 (U-251) was 8.28 µM (inactive) and the GI50 (UO-31) was 40.8 µM (inactive).

With `CC(C)(C)c1ccc(-c2nc3ccc(Cl)cc3c(=O)o2)cc1` the GI50 (CAKI-1) was 25.4 µM (inactive), the GI50 (DU-145) was 25.4 µM (inactive) and the GI50 (EKVX) was 20.6 µM (inactive). The GI50 (HCC 2998) was 12.8 µM (inactive), the GI50 (HOP-92) was 11.9 µM (inactive) and the GI50 (HT-29) was 23.1 µM (inactive). For the same compound, the GI50 (K562) was 15.8 µM (inactive), the GI50 (NCI/ADR-RES) was 22.7 µM (inactive) and the GI50 (OVCAR-4) was 20.5 µM (inactive). For the same compound, the GI50 (OVCAR-8) was 14.5 µM (inactive), the GI50 (PC-3) was 21.5 µM (inactive) and the GI50 (RPMI-8226) was 19.6 µM (inactive). For the same compound, the GI50 (RXF 393) was 39.1 µM (inactive), the GI50 (SF-295) was 13 µM (inactive) and the GI50 (SN12C) was 27.1 µM (inactive). For the same compound, the GI50 (SNB-75) was 26.8 µM (inactive), the GI50 (SR) was 16.4 µM (inactive) and the GI50 (SW-620) was 26.4 µM (inactive). The GI50 (U-251) was 12.6 µM (inactive) and the GI50 (UO-31) was 21.2 µM (inactive).

With `COc1cc2c(cc1OC)C(OC)N(C)c1c-2ccc2cc3c(cc12)OCO3` (stereo unspecified) the GI50 (CAKI-1) was 1.98 µM (inactive), the GI50 (DU-145) was 2.26 µM (inactive) and the GI50 (EKVX) was 1.82 µM (inactive). For the same compound, the GI50 (HCC 2998) was 1.65 µM (inactive), the GI50 (HOP-92) was 2.19 µM (inactive) and the GI50 (HT-29) was 1.38 µM (inactive). For the same compound, the GI50 (K562) was 1.75 µM (inactive), the GI50 (NCI/ADR-RES) was 26.8 µM (inactive) and the GI50 (OVCAR-4) was 4.93 µM (inactive). The GI50 (OVCAR-8) was 1.72 µM (inactive), the GI50 (PC-3) was 1.33 µM (inactive) and the GI50 (RPMI-8226) was 1.47 µM (inactive). The GI50 (RXF 393) was 1.91 µM (inactive), the GI50 (SF-295) was 2.82 µM (inactive) and the GI50 (SN12C) was 0.813 µM (active). The GI50 (SNB-75) was 0.708 µM (active), the GI50 (SR) was 0.506 µM (active) and the GI50 (SW-620) was 0.571 µM (active). The GI50 (U-251) was 0.356 µM (active) and the GI50 (UO-31) was 18.1 µM (inactive).
